This note sets out measurements from patent publication US9950048B2, “Immunogenic epitopes for immunotherapy” (immatics biotechnologies GmbH, priority 2007, dated 2018).

Ends that are not written are not given here.

Assay [1] deals with CD8+ T cells of healthy HLA-A*02+ donors. Kind of assay: In vitro priming of CD8+ T cells with pMHC/anti-CD28 coated beads (high density), tetramer analysis. The class given is cell-based, human. The following applies: for Immunogenicity detected: at least one well with ≥1% specific tetramer+ among CD8+ T-cells and ≥10× median of negative controls; for Positive donors/donors tested / Positive donors/donors tested (%) / Positive wells/wells tested / Positive wells/wells tested (%): high density beads. The procedure: To perform in vitro stimulations by artificial antigen presenting cells (aAPC) loaded with peptide-MHC complex (pMHC) and anti-CD28 antibody, first PBMCs (peripheral blood mononuclear cells) were isolated from fresh HLA-A*02+ buffy coats by using standard density gradient separation medium (PAA, Cölbe, Germany). Buffy coats were either obtained from the Blood Bank Tübingen or from the Katharinenhospital Stuttgart. Isolated PBMCs were incubated overnight in T-cell medium (TCM) for human in vitro priming consisting of RPMI-Glutamax (Invitrogen, Karlsruhe, Germany) supplemented with 10% heat inactivated human AB serum (PAA, Cölbe, Germany), 100 U/ml Penicillin/100 μg/ml Streptomycin (Cambrex, Verviers, Belgium), 1 mM sodium pyruvate (CC Pro, Neustadt, Germany) and 20 μg/ml Gentamycin (Cambrex). CD8+ lymphocytes were isolated using the CD8+ MACS positive selection kit (Miltenyi, Bergisch Gladbach, Germany) according to the manufacturer's instructions. Obtained CD8+ T-cells were incubated until use in TCM supplemented with 2.5 ng/ml IL-7 (PromoCell, Heidelberg, Germany) and 10 U/ml IL-2 (Chiron, Munich, Gemany). Generation of pMHC/anti-CD28 coated beads, T-cell stimulations and readout was performed as described before (Walter, S, et al., 2003, J. Immunol., 171, 4974-4978) with minor modifications. Briefly, biotinylated recombinant HLA-A*0201 molecules lacking the transmembrane domain and being biotinylated at the carboxy terminus of the heavy chain were produced following a method described by (Altman, J D, et al., 1996, Science, 274, 94-96). The purified costimulatory mouse IgG2a anti human CD28 Ab 9.3 (Jung, G, Ledbetter, J A, and Muller-Eberhard, H J; 1987, Induction of cytotoxicity in resting human T lymphocytes bound to tumor cells by antibody heteroconjugates, Proc Natl Acad Sci USA, 84, 4611-4615) was chemically biotinylated using Sulfo-N-hydroxysuccinimidobiotin as recommended by the manufacturer (Perbio, Bonn, Germany).
800,000 beads/200 μl were coated in 96-well plates in the presence of 600 ng biotin anti-CD28 plus 200 ng relevant biotin-pMHC (high density beads) or 2 ng relevant plus 200 ng irrelevant (pMHC library) MHC (low density beads). Stimulations were initiated in 96-well plates by conincubating 1×10^6 CD8+ T cells with 2×10^5 washed coated beads in 200 μl TCM supplemented with 5 ng/ml IL-12 (PromoCell) for 3-4 days at 37° C. Half of the medium was then exchanged by fresh TCM supplemented with 80 U/ml IL-2 and incubation was continued for 3-4 days at 37° C. This stimulation cycle was performed for a total of three times. Finally, tetrameric analyses were performed with fluorescent MHC tetramers (produced as described by (Altman, J D, et al., 1996, Science, 274, 94-96)) plus antibody CD8-FITC clone SK1 (BD, Heidelberg, Germany) on a four-color FACSCalibur (BD). Peptide specific cells were calculated as percentage of total CD8+ T cells. Evaluation of tetrameric analysis was performed using the software FCS Express (De Novo Software). In vitro priming of specific tetramer+CD8+ lymphocytes was detected by appropriate gating and by comparison to negative control stimulations.
Peptides of the present invention were tested together with peptides of known in vivo immunogenicity for comparison. The CEA-005 peptide that was optimised for in vitro T-cell induction (Fong, L, et al., 2001, J. Immunol., 166, 4254-4259) served as control.
Results of in vitro immunogenicity experiments conducted by immatics are summarised here. Results shown have been obtained by stimulation of CD8+ cells with high density beads. As different human serum lots may highly affect the immunogenicity results, only assays in which one and the same serum lot was used, were evaluated together.

The subject of assay [2] is CD8+ T cells of healthy donors. Kind of assay: Priming of high-avidity CD8+ T cells with low density pMHC beads, tetramer staining and FACS sorting. To be noted: for establishment of specific high-avidity T-cell lines by FACS: healthy donors; for in vitro immunogenicity with low pMHC density aAPCs: low density beads (2 ng relevant pMHC). Format: cell-based, human. An excerpt: Dependent on their ability to be activated by high- or low-density antigen, T cell lines can be divided into high- or low-avidity. As it has been shown before (Walter, S, et al., 2003, J. Immunol., 171, 4974-4978), human high-avidity CTLs can be raised successfully by using less peptide for activation compared to low-avidity CD8+ T cells.
To determine the ability of peptides to generate high-avidity CTL lines, isolated human CD8+ cells were primed and expanded by repeated in vitro stimulations with beads coated with low-density pMHC (peptide-MHC-complex) and anti-CD28 antibody in the presence of IL-12 and IL-2. After three stimulations, a fraction of in vitro primed T cells were pMHC-tetramer stained and detected by cytometric analysis. Tetramer-positive cells of each donor were pooled afterwards according to the antigen specificity, stained with pMHC-tetramer and human anti-CD8-FITC antibody and finally subjected to FACS sorting on a FACSAria. Sorted cells were cultured and expanded in the presence of irradiated feeder cells, cytokines and mitogen. As a read-out for the generation of primed high avidity antigen specific cells, pMHC-tetramer staining was performed. In order to determine their functionality, IFNγ production was assayed by ELISPOT and killing of tumor cell lines was examined using a cytotoxicity assay based on live/dead staining after restimulation of the cells with the corresponding peptide and tumor cell lines.
In vitro stimulations using artificial antigen presenting cells (aAPC) loaded with peptide-MHC complex (pMHC) and anti-CD28 antibody were conducted as described above. The only difference to the method described above was the fact that stimulations were performed with beads loaded with 2 ng relevant plus 200 ng irrelevant library (pMHC) MHC (low density beads) instead of 200 ng relevant MHC (high density beads). Thus, predominantly high avidity T cells were generated for deeper validation of peptides. After three stimulations, a fraction of in vitro primed T cells was pMHC-tetramer stained and detected by cytometric analysis. […] Tetramer-positive cells of each donor were pooled afterwards according to the antigen specificity, stained with the corresponding pMHC-tetramer and human anti-CD8-FITC antibody clone SK1 and finally subjected to FACS sorting on a FACSAria (BD Biosciences, Germany). […] As a read-out for the generation of primed high avidity antigen specific cells, pMHC-tetramer staining was performed as above and analyzed on a four-color FACSCalibur (BD Biosciences, Germany).
(In general: Flow cytometry measures light scatter and fluorescence of single cells or particles in a stream.)

On to ILAPVILYI [NOX-001], for which, in assay [1], the Immunogenicity detected result was “yes”, the Positive donors/donors tested is listed as 3/5, the “Positive donors/donors tested (%)” value is on record as “(60%)” and the Positive wells/wells tested was 9/60. Besides, the “Positive wells/wells tested (%)” value in assay [1] is “(15%)”. Also, in assay [2], the “establishment of specific high-avidity T-cell lines by FACS” value was “specific T-cell lines could be established by FACS” and the “in vitro immunogenicity with low pMHC density aAPCs” value is “immunogenic in vitro”.
With ALFVRLLALA [TGFBI-001], in assay [1], the Immunogenicity detected entry was “yes”, the Positive donors/donors tested is given as 3/4, the “Positive donors/donors tested (%)” value was “(75%)” and the Positive wells/wells tested was 4/22. Besides, in assay [1], the “Positive wells/wells tested (%)” value was “(18%)”. Further, in assay [2], the “establishment of specific high-avidity T-cell lines by FACS” value is reported as “specific T-cell lines could be established by FACS” and the “in vitro immunogenicity with low pMHC density aAPCs” value is on record as “immunogenic in vitro”.
